Substitutions are numbered along the chain they refer to. Where a SMILES comes first, the peptide text is derived from it.
What was measured:
[1] = target: T1, hTAS1R2 + hTAS1R3 R723A^5.36 (Homo sapiens, UniProt Q7RTX0+Q8TE23, R723A); assay: Calcium response (FLIPR), hTAS1R3 mutant coexpressed with hTAS1R2; format: cell-based; details: variant R723A^5.36; for Emax: read-out: maximal signal (% of wt)
T1 construct: expressed in transfected cells; host or cells: HEK293T cells stably expressing G16Gust44
T1 sequence (Q8TE23 20-839): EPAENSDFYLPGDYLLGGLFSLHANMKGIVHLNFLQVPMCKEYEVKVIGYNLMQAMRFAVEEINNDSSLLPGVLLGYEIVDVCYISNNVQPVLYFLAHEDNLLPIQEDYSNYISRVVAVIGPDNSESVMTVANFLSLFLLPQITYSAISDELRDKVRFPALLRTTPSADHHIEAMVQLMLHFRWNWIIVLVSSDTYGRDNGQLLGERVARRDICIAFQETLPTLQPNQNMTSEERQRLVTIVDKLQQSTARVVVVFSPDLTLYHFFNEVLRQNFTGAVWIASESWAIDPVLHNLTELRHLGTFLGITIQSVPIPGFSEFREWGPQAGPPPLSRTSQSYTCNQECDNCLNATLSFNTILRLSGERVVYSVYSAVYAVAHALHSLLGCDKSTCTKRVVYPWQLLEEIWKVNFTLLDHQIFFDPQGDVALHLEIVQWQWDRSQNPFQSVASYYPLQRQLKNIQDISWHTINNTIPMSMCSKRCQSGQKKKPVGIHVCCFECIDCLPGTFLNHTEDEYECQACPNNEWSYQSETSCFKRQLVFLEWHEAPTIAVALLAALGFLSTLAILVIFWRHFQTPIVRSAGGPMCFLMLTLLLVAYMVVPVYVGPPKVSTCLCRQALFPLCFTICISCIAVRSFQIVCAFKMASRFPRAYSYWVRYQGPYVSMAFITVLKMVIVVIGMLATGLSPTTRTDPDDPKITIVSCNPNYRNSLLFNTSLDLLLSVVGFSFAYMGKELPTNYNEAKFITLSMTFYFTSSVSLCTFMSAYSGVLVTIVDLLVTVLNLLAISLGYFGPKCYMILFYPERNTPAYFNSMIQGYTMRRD
T1 sequence (Q7RTX0 21-852 R723A): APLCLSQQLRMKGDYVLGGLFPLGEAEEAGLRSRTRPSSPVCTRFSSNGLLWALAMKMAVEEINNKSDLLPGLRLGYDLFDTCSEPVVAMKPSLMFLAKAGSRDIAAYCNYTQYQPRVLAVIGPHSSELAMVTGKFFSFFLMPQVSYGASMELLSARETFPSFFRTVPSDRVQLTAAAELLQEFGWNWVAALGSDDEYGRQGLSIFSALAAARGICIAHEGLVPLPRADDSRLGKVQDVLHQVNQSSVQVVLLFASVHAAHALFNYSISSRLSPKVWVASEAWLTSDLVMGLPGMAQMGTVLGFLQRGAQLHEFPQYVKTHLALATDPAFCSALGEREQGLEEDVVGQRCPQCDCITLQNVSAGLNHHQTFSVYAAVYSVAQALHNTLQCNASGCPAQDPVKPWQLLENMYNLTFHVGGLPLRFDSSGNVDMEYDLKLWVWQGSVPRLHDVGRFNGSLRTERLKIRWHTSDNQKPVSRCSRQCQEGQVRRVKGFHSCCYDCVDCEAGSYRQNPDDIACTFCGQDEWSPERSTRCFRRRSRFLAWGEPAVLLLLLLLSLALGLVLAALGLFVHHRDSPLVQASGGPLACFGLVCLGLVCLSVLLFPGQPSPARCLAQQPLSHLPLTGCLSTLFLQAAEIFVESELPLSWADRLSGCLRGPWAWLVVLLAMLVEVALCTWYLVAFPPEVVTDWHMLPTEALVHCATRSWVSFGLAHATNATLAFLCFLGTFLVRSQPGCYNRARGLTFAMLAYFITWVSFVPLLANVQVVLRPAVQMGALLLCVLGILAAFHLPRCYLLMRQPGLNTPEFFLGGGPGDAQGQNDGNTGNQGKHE
In short: (§1)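 Read-out: FLIPR calcium signal as ΔF/F = (F-F0)/F0, corrected for mock-transfected cells. Cells were HEK293T stably carrying G16Gust44, transiently transfected with HSV-tagged receptor cDNAs and dye-loaded with Fluo4-AM 24 h post transfection.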

[2] = target: T2, hTAS1R2 + hTAS1R3 R790Q^ex3 (Homo sapiens, UniProt Q7RTX0+Q8TE23, R790Q); assay: as above; format: cell-based; details: variant R790Q^ex3; for Emax: read-out: maximal signal (% of wt)
T2 construct: expressed in transfected cells; host or cells: HEK293T cells stably expressing G16Gust44
T2 sequence (Q8TE23 20-839): T1 sequence (Q8TE23 20-839)
T2 sequence (Q7RTX0 21-852 R790Q): T1 sequence (Q7RTX0 21-852 R723A) with A703R, R770Q
In short: as §1

EC50 [1] [µM] | Emax [1] [%] | EC50 [2] [µM] | Emax [2] [%] | Structure (SMILES)
1500 ± 500 | 68 ± 50 | 900 ± 400 | 71 ± 30 | COC(=O)[C@H](Cc1ccccc1)NC(=O)[C@@H](N)CC(=O)O [aspartame] (HELM PEPTIDE1{D.F.[CO[*:1]]}$$$$V2.0)
200 ± 100 | 69 ± 71 | 100 ± 60 | 77 ± 15 | COc1ccc(CCC(=O)c2c(O)cc(O[C@@H]3O[C@H](CO)[C@@H](O)[C@H](O)[C@H]3O[C@@H]3O[C@@H](C)[C@H](O)[C@@H](O)[C@H]3O)cc2O)cc1O [NHDC, neohesperidin dihydrochalcone]

From PMC2099433, “The binding site for neohesperidin dihydrochalcone at the human sweet taste receptor” (BMC Structural Biology, 2007)
